Assay results as given in US20250340552A1, “COMPOUNDS, COMPOSITIONS AND METHODS OF TREATING DISORDERS” (HOTSPOT THERAPEUTICS, INC., priority 2022, published 2025).
Read-outs that look alike come from different tables or passages of the source.

Target: T1, Cbl-B (Homo sapiens, UniProt Q13191)
T1 construct: MSD-Based Assay for Degradation of Cbl-B in THP-1 Cells; endogenous in cells; host or cells: THP-1 (title) / Jurkat (protocol text)
Test: MSD-based assay for degradation of Cbl-B in THP-1 cells
Assay type: cell-based
Procedure: MSD-Based Assay for Degradation of Cbl-B in THP-1 Cells
Assay plates were then shaken at 600 rpm for 5 minutes, followed by incubation for 24 hours in the 37° C. TC incubator. […] Cell debris was then spun down at maximum speed (about 3200 g) for 30 min and lysates frozen in the −80° C. fridge. Meanwhile, MSD plates (L15XA-3) were coated overnight at 4° C. with 1 ug/mL capture antibody (Anti-Cbl-B antibody, 246C5a and Mouse mAB, ab54362). […] Blocking buffer was 3% Blocker A (MSD, R93BA-4) in TBST. Plates were washed 3× with 150 ul/well of 1×TBST and sample lysates (70 ul/well) then added, followed by shaking for 1 hr at RT, 600 rpm. […] Plates were again washed 3× with 150 ul/well of 1×TBST, followed by addition of Secondary Detection antibody, SULFO-TAG anti-species antibody (Anti Rabbit Antibody (R32AB-5) MSD, R32AB-1) at a final concentration of 1 ug/ml and 25 uL/well, followed by shaking for 1 hr at RT, 600 rpm. Plates were again washed 3× with 150 ul/well of 1×TBST, followed by addition of 1×MSD reading buffer (MSD, R92TC-2), 150 ul/well, diluted from 4× with water.
Compound Dmax were binned into A through D as follows: A indicates >70%, B indicates 50-70%, C indicates 30-50%, D indicates <30%.

[1] = Cbl-B degradation, Jurkat cells seeded (heading: THP-1 cells), 24 hours incubation, MSD readout
[2] = Cbl-B degradation, Jurkat cells seeded (heading: THP-1 cells), 24 hours incubation, MSD readout, read-out: Dmax

T1 sequence (Q13191 whole entry): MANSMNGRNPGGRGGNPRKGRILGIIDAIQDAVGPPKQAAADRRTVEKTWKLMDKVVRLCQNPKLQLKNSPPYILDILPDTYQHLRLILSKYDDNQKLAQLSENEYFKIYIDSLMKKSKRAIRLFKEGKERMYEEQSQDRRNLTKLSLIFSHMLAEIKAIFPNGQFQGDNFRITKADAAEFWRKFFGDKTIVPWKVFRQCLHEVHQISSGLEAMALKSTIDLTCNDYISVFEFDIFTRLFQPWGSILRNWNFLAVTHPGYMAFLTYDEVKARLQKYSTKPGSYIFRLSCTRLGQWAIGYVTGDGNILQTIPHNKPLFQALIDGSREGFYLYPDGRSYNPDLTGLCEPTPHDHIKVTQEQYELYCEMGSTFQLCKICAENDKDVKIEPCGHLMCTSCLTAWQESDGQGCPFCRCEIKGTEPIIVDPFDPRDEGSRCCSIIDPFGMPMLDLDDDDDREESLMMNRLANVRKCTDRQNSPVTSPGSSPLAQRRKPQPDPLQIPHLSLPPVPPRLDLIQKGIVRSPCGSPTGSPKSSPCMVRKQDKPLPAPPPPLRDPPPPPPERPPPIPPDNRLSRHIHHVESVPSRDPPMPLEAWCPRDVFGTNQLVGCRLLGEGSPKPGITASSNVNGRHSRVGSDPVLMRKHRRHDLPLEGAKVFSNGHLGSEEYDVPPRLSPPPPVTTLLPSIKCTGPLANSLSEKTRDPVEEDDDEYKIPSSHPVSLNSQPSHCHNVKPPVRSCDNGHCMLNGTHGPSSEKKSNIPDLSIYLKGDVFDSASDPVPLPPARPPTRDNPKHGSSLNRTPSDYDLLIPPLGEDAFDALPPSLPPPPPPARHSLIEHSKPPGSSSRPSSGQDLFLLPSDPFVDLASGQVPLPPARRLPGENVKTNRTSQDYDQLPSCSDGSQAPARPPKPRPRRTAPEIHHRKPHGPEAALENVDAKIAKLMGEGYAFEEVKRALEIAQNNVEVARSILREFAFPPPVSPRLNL

Structure (SMILES)	DC50 [1]	Dmax [2]	Dmax (THP-1)
Cn1cnnc1[C@@H](c1cccc(-n2cc3c(C(F)(F)F)cc(CN4CCC(N5CCN(c6ccc7c(c6)CN([C@@H]6CCC(=O)NC6=O)C7=O)CC5)CC4)cn3c2=O)c1)C1CCC1 (single isomer, unassigned) [Compound 40]	1 to 10 µM	–	< 30%
Cn1cnnc1CC1(c2cccc(-n3cc4c(C(F)(F)F)cc(CN5CCC(OCCN6CCC(CN7CCN(c8ccc9c(c8)CN([C@@H]8CCC(=O)NC8=O)C9=O)CC7)CC6)CC5)cn4c3=O)c2)COC1 (single isomer, unassigned) [Compound 47]	0.3 to 1 µM	50 to 70%	–
Cn1cnnc1[C@@H](c1cccc(-n2cc3c(C(F)(F)F)cc(CN4CCC(OCCN5CCC(CN6CCN(c7ccc8c(c7)CN([C@@H]7CCC(=O)NC7=O)C8=O)CC6)CC5)CC4)cn3c2=O)c1)C1CCC1 (single isomer, unassigned) [Compound 48]	0.3 to 1 µM	30 to 50%	–
Cn1cnnc1CC1(c2cccc(-n3cc4c(C(F)(F)F)cc(CN5CCC[C@@H](OCCN6CCC(CN7CCN(c8ccc9c(c8)CN([C@@H]8CCC(=O)NC8=O)C9=O)CC7)CC6)C5)cn4c3=O)c2)COC1 (single isomer, unassigned) [Compound 49]	0.3 to 1 µM	50 to 70%	–
Cn1cnnc1[C@@H](c1cccc(-n2cc3c(C(F)(F)F)cc(CN4CCC[C@@H](OCCN5CCC(CN6CCN(c7ccc8c(c7)CN([C@@H]7CCC(=O)NC7=O)C8=O)CC6)CC5)C4)cn3c2=O)c1)C1CCC1 (single isomer, unassigned) [Compound 53]	1 to 10 µM	–	50 to 70%
Cn1cnnc1CC1(c2cccc(-n3cc4c(C(F)(F)F)cc(CN5CCN(CCN6CCC(CN7CCN(c8ccc9c(c8)CN([C@@H]8CCC(=O)NC8=O)C9=O)CC7)CC6)CC5)cn4c3=O)c2)COC1 (single isomer, unassigned) [Compound 61]	0.03 to 0.3 µM	–	50 to 70%
Cn1cnnc1[C@@H](c1cccc(-n2cc3c(C(F)(F)F)cc(CN4CCN(CCN5CCC(CN6CCN(c7ccc8c(c7)CN([C@H]7CCC(=O)NC7=O)C8=O)CC6)CC5)CC4)cn3c2=O)c1)C1CCC1 (single isomer, unassigned) [Compound 64]	< 0.03 µM	> 70%	–
Cn1cnnc1CC1(c2cccc(-n3cc4c(C(F)(F)F)cc(CN5CCC(OCCCN6CCN(c7ccc8c(c7)CN([C@@H]7CCC(=O)NC7=O)C8=O)CC6)CC5)cn4c3=O)c2)COC1 (single isomer, unassigned) [Compound 67]	> 10 µM	–	< 30%
Cn1cnnc1[C@@H](c1cccc(-n2cc3c(C(F)(F)F)cc(CN4CCC(OCCCN5CCN(c6ccc7c(c6)CN([C@@H]6CCC(=O)NC6=O)C7=O)CC5)CC4)cn3c2=O)c1)C1CCC1 (single isomer, unassigned) [Compound 71]	> 10 µM	< 30%	–
Cn1cnnc1[C@@H](c1cccc(-n2cc3c(C(F)(F)F)cc(CN4CCC(OCCCN5CCN(c6ccc7c(c6)CN([C@H]6CCC(=O)NC6=O)C7=O)CC5)CC4)cn3c2=O)c1)C1CCC1 (single isomer, unassigned) [Compound 72]	> 10 µM	30 to 50%	–
Cn1cnnc1CC1(c2cccc(-n3cc4c(C(F)(F)F)cc(CN5CCC(OCCN6CCN(CC7CCN(c8ccc9c(c8)CN([C@@H]8CCC(=O)NC8=O)C9=O)CC7)CC6)CC5)cn4c3=O)c2)COC1 (single isomer, unassigned) [Compound 77]	0.3 to 1 µM	–	30 to 50%
Cn1cnnc1CC1(c2cccc(-n3cc4c(C(F)(F)F)cc(CN5CCC(OCCN6CCN(CC7CCN(c8ccc9c(c8)CN([C@H]8CCC(=O)NC8=O)C9=O)CC7)CC6)CC5)cn4c3=O)c2)COC1 (single isomer, unassigned) [Compound 78]	< 0.03 µM	50 to 70%	–
Cn1cnnc1[C@@H](c1cccc(-n2cc3c(C(F)(F)F)cc(CN4CCC(OCCN5CCN(CC6CCN(c7ccc8c(c7)CN([C@@H]7CCC(=O)NC7=O)C8=O)CC6)CC5)CC4)cn3c2=O)c1)C1CCC1 (single isomer, unassigned) [Compound 79]	1 to 10 µM	30 to 50%	–
Cn1cnnc1[C@@H](c1cccc(-n2cc3c(C(F)(F)F)cc(CN4CCC(OCCN5CCN(CC6CCN(c7ccc8c(c7)CN([C@H]7CCC(=O)NC7=O)C8=O)CC6)CC5)CC4)cn3c2=O)c1)C1CCC1 (single isomer, unassigned) [Compound 80]	< 0.03 µM	50 to 70%	–
Cn1cnnc1CC1(c2cccc(-n3cc4c(C(F)(F)F)cc(CN5CCC[C@H](OCc6ccc(CN7CCN(c8ccc9c(c8)CN([C@@H]8CCC(=O)NC8=O)C9=O)CC7)cc6)C5)cn4c3=O)c2)COC1 (single isomer, unassigned) [Compound 83]	> 10 µM	< 30%	–

More lines, main results first:

DC50 [1]	Dmax [2]	Structure (SMILES)	Dmax (THP-1)
> 10 µM	< 30%	Cn1cnnc1[C@@H](c1cccc(-n2cc3c(C(F)(F)F)cc(CN4CCC(OCCOCc5ccc(COCCNc6cccc7c6C(=O)N(C6CCC(=O)NC6=O)C7=O)cc5)CC4)cn3c2=O)c1)C1CCC1 (single isomer, unassigned) [Compound 5]	–
0.03 to 0.3 µM	50 to 70%	Cn1cnnc1[C@H](c1cccc(-n2cc3c(C(F)(F)F)cc(CN4CCC(OCCOCc5ccc(COCCNc6cccc7c6C(=O)N(C6CCC(=O)NC6=O)C7=O)cc5)CC4)cn3c2=O)c1)C1CCC1 (single isomer, unassigned) [Compound 6]	–
1 to 10 µM	< 30%	Cn1cnnc1[C@@H](c1cccc(-n2cc3c(C(F)(F)F)cc(CN4CCC(N5CCN(c6ccc7c(c6)CN([C@H]6CCC(=O)NC6=O)C7=O)CC5)CC4)cn3c2=O)c1)C1CCC1 (single isomer, unassigned) [Compound 41]	–
0.03 to 0.3 µM	> 70%	Cn1cnnc1CC1(c2cccc(-n3cc4c(C(F)(F)F)cc(CN5CCC[C@@H](OCCN6CCC(CN7CCN(c8ccc9c(c8)CN([C@H]8CCC(=O)NC8=O)C9=O)CC7)CC6)C5)cn4c3=O)c2)COC1 (single isomer, unassigned) [Compound 50]	–
0.3 to 1 µM	50 to 70%	Cn1cnnc1CC1(c2cccc(-n3cc4c(C(F)(F)F)cc(CN5CCC[C@H](OCCN6CCC(CN7CCN(c8ccc9c(c8)CN([C@@H]8CCC(=O)NC8=O)C9=O)CC7)CC6)C5)cn4c3=O)c2)COC1 (single isomer, unassigned) [Compound 51]	–
0.03 to 0.3 µM	> 70%	Cn1cnnc1CC1(c2cccc(-n3cc4c(C(F)(F)F)cc(CN5CCC[C@H](OCCN6CCC(CN7CCN(c8ccc9c(c8)CN([C@H]8CCC(=O)NC8=O)C9=O)CC7)CC6)C5)cn4c3=O)c2)COC1 (single isomer, unassigned) [Compound 52]	–
0.03 to 0.3 µM	> 70%	Cn1cnnc1[C@@H](c1cccc(-n2cc3c(C(F)(F)F)cc(CN4CCC[C@@H](OCCN5CCC(CN6CCN(c7ccc8c(c7)CN([C@H]7CCC(=O)NC7=O)C8=O)CC6)CC5)C4)cn3c2=O)c1)C1CCC1 (single isomer, unassigned) [Compound 54]	–
> 10 µM	< 30%	Cn1cnnc1CC1(c2cccc(-n3cc4c(C(F)(F)F)cc(CN5CCC(OCCCN6CCN(c7ccc8c(c7)CN([C@H]7CCC(=O)NC7=O)C8=O)CC6)CC5)cn4c3=O)c2)COC1 (single isomer, unassigned) [Compound 68]	–
> 10 µM	–	Cn1cnnc1[C@@H](c1cccc(-n2cc3c(C(F)(F)F)cc(CN4CCC[C@H](OCc5ccc(CN6CCN(c7ccc8c(c7)CN([C@@H]7CCC(=O)NC7=O)C8=O)CC6)cc5)C4)cn3c2=O)c1)C1CCC1 (single isomer, unassigned) [Compound 81]	–
